Experimental data: PMC7018803, “A randomized, placebo-controlled, phase 1 study to evaluate the effects of TAK-063 on ketamine-induced changes in fMRI BOLD signal in healthy subjects” (Psychopharmacology, 2019)

Tests used:
[1] = Pharmacokinetics of TAK-063 in plasma after single oral dose; format: in vivo, human
[2] = as above; format: in vivo, human; remark: listed apart in the source
Source text: (§1) The Statistics Department at Takeda Development Center Americas, Inc., generated a randomization schedule before the start of the study, and this randomization schedule maintained the investigational drug blind. During randomization, subjects were assigned a four-digit randomization sequence that encoded assignment of subjects to the treatment schedule. Subjects were randomized to one of nine treatment schedules and received placebo + ketamine (regimen A) and two of the following three treatment regimens: 3 mg of TAK-063 + ketamine (regimen B), 30 mg of TAK-063 + ketamine (regimen C), and 300 mg of TAK-063 + ketamine (regimen D). […] Treatment sequences are presented in Online Resource Supplementary Table S1. The study consisted of multiple visits with a different treatment protocol on each visit. The visits were standardized and included a screening period (day − 28 to day − 2), check-in (day − 1), a treatment period (days 1), completion of treatment visit (day 2), and a follow-up visit (day 14 ± 3 days after last TAK-063 dose). After each treatment period, subjects stayed overnight at the study site for observation and were discharged on day 2. Each participant completed the study when they completed the follow-up visit after their last treatment2.
Subjects checked in on day − 1 of each treatment period during which vital signs, electrocardiogram (ECG), and laboratory safety tests were repeated. On day 1 of each treatment period, subjects received a 3-, 10-, or 30-mg TAK-063 dose or placebo tablets. Participants then relaxed, slept, or watched movies while remaining in the research environment. Ketamine (0.12 mg/kg intravenous bolus over 60 s followed by a continuous infusion of 0.31 mg/kg/h over approximately 150 min) was administered 4 h after TAK-063 or placebo (Fig. 1). This ketamine dose was based on a previous study that achieved steady-state concentrations of 75 ng/mL and provided a robust BOLD signal with minimal psychotomimetic symptoms (De Simoni et al. [2013]). […]
Blood samples were collected for the determination of TAK-063 and ketamine concentrations, and ketamine concentrations were used to verify intravenous delivery of ketamine. Blood samples for determination of TAK-063 concentration were collected at pre-dose and at 0.5, 2, 3, 4.5, 6, 8, 10, 12, and 24 h post dose. Blood samples for determination of ketamine concentration were collected at 0.5, 1, 2, and 2.5 h after administration of ketamine. The target ketamine concentration was established at 75 ng/mL. PK samples were not collected from the arm in which ketamine was administered.
This study was not powered for any comparison, and the number of subjects was considered to be suitable for fulfilling study objectives. All statistical tests were two-tailed at α = 0.05 level of significance. For the analysis of the neuroimaging battery test results, effect sizes of > 0.3 were considered potentially meaningful, even without power to detect statistical significance. PK parameters of TAK-063 were generated using WinNonlin Version 6.3. fMRI images were analyzed using SPM8 and Matlab. Percent signal change for resting state data was calculated between pre-ketamine and post-ketamine infusion based on a priori ROIs using SPM’s Anatomy Toolbox (Yurgelun-Todd et al. [2016]). Percent signal change for the working memory task was calculated for the task versus baseline in the post-ketamine condition using the same ROI used for resting state (Yurgelun-Todd et al. [2016]). An analysis of variance (ANOVA) model was used to perform the analyses for BOLD signal changes (Yurgelun-Todd et al. [2016]). Cohen’s d effect sizes were calculated as d=μt^−μp^/sp where d is the effect size and μt^ and μp^ are the least-square means for a TAK-063 dose and placebo regimen, respectively, from the ANOVA model. sp is the pooled standard deviation from both regimens. No adjustments were made for multiple comparisons.

[3] = system: rodent models of cognitive impairment; set-up: method as in Shiraishi et al. [2016]; conditions: ref Shiraishi et al. [2016]; cited from earlier work
healthy male subjects = assay: Safety assessments (adverse events, laboratory tests, ECG, vital signs); format: in vivo, human
Source text: as §1
AEs, clinical laboratory results, ECG, vital signs, and suicide assessments were recorded after administration of TAK-063 and throughout the remainder of the study. Intensity of AEs was classified as mild, moderate, and severe, and each AE was assessed for association with study drug. AEs were assessed throughout the 2-day study visit, at the three treatment visits, at the study exit, and at the follow-up visit. ECG, vital signs, and clinical laboratory results were assessed at visit 1 during screening, day − 1, day 1 of each treatment period, day 2 of period 3 (study exit), the early termination visit, and the follow-up visit.
In this study, the safety set, used for demographic and safety evaluations, included subjects who receive at least one dose of study medication. The PK set included all subjects in the safety set with at least one available drug concentration measurement. The PD set included all subjects in the safety set and with at least one valid PD assessment.

[4] = all 27 subjects, TAK-063 or placebo followed by ketamine
[5] = all subjects, most frequently reported AEs

## COc1cn(-c2ccc(-n3cccn3)cc2F)nc(-c2ccnn2-c2ccccc2)c1=O [TAK-063]
[1]; dose range 3-30 mg
  Dose proportionality of Cmax and AUC: close to dose proportional increase in exposure
[1]; single oral dose, plasma, 3-30 mg
  median tmax: 3 h
[2]; 3 mg single oral dose
  AUC24: 111.3 ng·h/mL
  Average concentration (Cav): 4.63 ng/mL
[2]; 10 mg single oral dose
  AUC24: 549.2 ng·h/mL
  Average concentration (Cav): 22.9 ng/mL
[2]; 30 mg single oral dose
  AUC24: 1296.3 ng·h/mL
  Average concentration (Cav): 53.9 ng/mL
[2]; oral administration
  rate of absorption: moderate
[2]; single oral dose
  Decline of plasma concentrations after Cmax: declined in a biphasic manner
[3]
  MK-801 and phencyclidine-induced effects on spatial working memory, attentional set-shifting, and executive function: reversed
Healthy male subjects; 30 mg
  EPS-type AE in one subject: restlessness
Healthy male subjects; 300 mg
  EPS-type AE in one subject: muscle tightness and restlessness
  discontinuation because of EPS: One subject
Healthy male subjects; 300 mg, led to change of dose to 10 mg
  tolerability of the 300-mg dose: higher than expected rates of dystonia and nausea
Healthy male subjects; TAK-063 group overall
  subjects with AEs consistent with extrapyramidal symptoms (EPS): 8.0%
  subjects with AEs consistent with extrapyramidal symptoms (EPS) (number): two
Healthy male subjects; [4]
  subjects who experienced AEs related to the study drug: 88.9%
  subjects who experienced AEs related to the study drug (number): 24 subjects
Healthy male subjects; all subjects
  severity of drug-related AEs: mild to moderate
Healthy male subjects; [5]
  fatigue: 25.9%
  nausea: 40.7%
  somnolence: 40.7%
  vomiting: 63.0%
Healthy male subjects; baseline to post dose
  clinically significant changes from baseline in vital signs, clinical laboratory tests and 12-lead ECGs: No changes
Healthy male subjects; during the study
  deaths or serious AEs: No deaths or serious AEs
Healthy male subjects; in vivo
  participants discontinuing study drug because of AEs: one
Healthy male subjects; single oral doses with ketamine
  overall safety and tolerability: safe and well tolerated
